The record followed here is patent US20240308995A1, “O-GLYCOPROTEIN-2-ACETAMIDO-2-DEOXY-3-D-GLUCOPYRANOSIDASE INHIBITORS” (BIOGEN MA INC., priority 2018, published 2024).

Structures are written as SMILES. Read-outs that look alike come from different tables or passages of the source.

As a reminder, the IC50 is the concentration that gives 50% inhibition.

Data set [1] in a line: Rat Liver Microsome Stability Assay. It is filed as in vitro ADME. To be noted: rat liver microsomes, 1 uM compound.
Data set [2] deals with OGA (S400 O-GLCNAC), HEK-293T cells transfected with Tau-V5 (Homo sapiens (Human), UniProt O60502). The data set is described as follows: Cellular OGA-Tau MSD Assay. The data set is classed as cell-based. Summed up:
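HEK-293T cells transfected with OGA and Tau-V5 plasmids were treated overnight at 37° C with a 10-point, 3-fold titration from 1 uM. Lysates went onto V5-antibody MSD plates to capture Tau, probed with a Tau O-GlcNAc antibody and read by electrochemiluminescence; IC50 from a 4-parameter fit.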

In data set [3] the target is Recombinant full length human OGA enzyme (Homo sapiens (Human), UniProt O60502). The data set is described as follows: OGA Enzyme Inhibition Biochemical Assay. To be noted: 1 nM OGA, 100 μM 4-MUGlcNAc, pH 6.4. The gist of the method:
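Full-length recombinant human OGA with fluorogenic 4-MUGlcNAc in McIlvaine buffer pH 6.4, 0.01% BSA; 90 min at room temperature, glycine pH 10 quench, fluorescence Ex 355/Em 460 nm. 10-point, 4-fold dilution from 20 μM; 4-parameter variable-slope fit.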

Another data set relates to P-gp (MDR1). The data set is described as follows: MDR1-MDCK Efflux Ratio Assay. The data set is classed as in vitro ADME. To be noted: dog, read-out: MDR1-MDCK Efflux Ratio (B-A/A-B). As for the experimental part: MDR1-MDCK cell monolayers were grown to confluence on microporous polyester membranes in 96-well Corning insert plates. The permeability assay buffer was Hanks' Balanced Salt Solution containing 10 mM HEPES at pH of 7.4. Loperamide (1 μM) was used as a positive control P-gp substrate. Propranolol and Bestatin (1 μM) were used as high and low permeability comparators, respectively. Test compounds or positive control P-gp substrate/permeability comprators were added to respective apical and basolateral chambers for bidirectional assessment of permeability. Receiver buffer (transport buffer supplemented with 1% bovine serum albumin) was added to respective receiver chambers. MDR1-MDCK cells were incubated with test compounds at 37° C. with 5% CO2 for 2 hr. Samples were collected from the donor chamber at both 0 and 120 minutes, and from the receiver chamber at 120 minutes. Test and control compound concentrations were determined using LC-MS/MS analysis. Each determination was performed in triplicate. The apparent permeability (Papp), efflux ratio and mass balance (percent recovery) were calculated as follows: [formula] where: dCr/dt is the cumulative concentration in the receiver compartment versus time in μM s^−1 Vr is the volume of the receiver compartment in cm^3 Vd is the volume of the donor compartment in cm^3 A is the area of the insert (0.143 cm^2 for 96-well insert) CE is the estimated experimental concentration (Time=0) of the dosing solution Cr^final is the concentration of the receiver at the end of the incubation period Cd^final is the concentration of the donor at the end of the incubation period.

The mark [4] stands for this setting: MDCK-MDR1, pH 7.4, MDR1-MDCK cells, 2 hr, pH 7.4.
[5] abbreviates: HEK-293T cells, Tau-S400-GlcNAc MSD readout.

Chain of Recombinant full length human OGA enzyme (O60502 whole entry): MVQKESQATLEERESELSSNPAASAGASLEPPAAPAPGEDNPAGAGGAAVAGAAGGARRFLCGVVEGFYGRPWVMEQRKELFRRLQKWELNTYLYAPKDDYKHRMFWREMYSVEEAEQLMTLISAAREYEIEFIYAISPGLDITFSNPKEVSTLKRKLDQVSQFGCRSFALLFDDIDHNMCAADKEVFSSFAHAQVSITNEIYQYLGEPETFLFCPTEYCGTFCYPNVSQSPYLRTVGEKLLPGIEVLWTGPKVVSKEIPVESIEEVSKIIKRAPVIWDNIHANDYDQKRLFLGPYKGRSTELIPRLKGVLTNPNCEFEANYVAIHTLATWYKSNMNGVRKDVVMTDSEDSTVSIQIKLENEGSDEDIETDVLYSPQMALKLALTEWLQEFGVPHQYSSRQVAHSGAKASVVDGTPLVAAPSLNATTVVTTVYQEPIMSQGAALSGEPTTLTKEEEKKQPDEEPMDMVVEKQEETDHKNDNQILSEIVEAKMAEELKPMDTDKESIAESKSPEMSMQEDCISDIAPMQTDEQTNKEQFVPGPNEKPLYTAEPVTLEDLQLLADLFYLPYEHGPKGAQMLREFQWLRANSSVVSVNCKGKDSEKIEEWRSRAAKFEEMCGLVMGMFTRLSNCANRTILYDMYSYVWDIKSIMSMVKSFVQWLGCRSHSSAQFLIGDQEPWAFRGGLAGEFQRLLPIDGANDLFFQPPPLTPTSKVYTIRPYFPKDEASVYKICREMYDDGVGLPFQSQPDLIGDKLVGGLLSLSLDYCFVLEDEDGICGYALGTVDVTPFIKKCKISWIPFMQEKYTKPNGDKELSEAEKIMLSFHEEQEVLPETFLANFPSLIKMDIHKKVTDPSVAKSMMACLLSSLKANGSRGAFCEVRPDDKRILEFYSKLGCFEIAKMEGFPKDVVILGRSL
Chain of OGA (S400 O-GLCNAC), HEK-293T cells transfected with Tau-V5 (O60502 whole entry): as above

Take `CC(=O)Nc1ncc(CN2C[C@H](Oc3ccnc(OC(F)F)c3)C[C@@H]2C)s1` [Example 1-20, N-(5-(((2S,4R)-4-((2-(difluoromethoxy)pyridin-4-yl)oxy)-2-methylpyrrolidin-1-yl)methyl)thiazol-2-yl)acetamide]: in data set [1], the “RLM % Qh (%)” value was determined as 63%. Besides, the IC50 was 7 nM in data set [2] (repeated assay, value marked with asterisk (*)) and < 1 nM in data set [3]. In addition, the efflux ratio at 2 h was found to be 2.9 with P-gp (MDR1) (setting [4]) and 3 in the data set on P-gp (MDR1) (MDCK-MDR1, pH 7.4, repeated assay, value marked with asterisk (*)).
With `COCCOc1cc(O[C@@H]2C[C@H](C)N(Cc3sc(NC(C)=O)nc3F)C2)ncn1` [Example 1-23, N-(4-fluoro-5-(((2S,4R)-4-((6-(2-methoxyethoxy)pyrimidin-4-yl)oxy)-2-methylpyrrolidin-1-yl)methyl)thiazol-2-yl)acetamide], the “RLM % Qh (%)” value in data set [1] was 31%. Also, the IC50 in data set [2] (setting [5]) was 3 nM; in data set [3], < 1 nM. For the same molecule, in the data set with P-gp (MDR1) (setting [4]), the efflux ratio at 2 h was determined as 7.7.
The like results for `COc1cc(O[C@@H]2CCN(Cc3sc(NC(C)=O)nc3F)C2)ncn1` [Example 1-28, (R)—N-(4-fluoro-5-((3-((6-methoxypyrimidin-4-yl)oxy)pyrrolidin-1-yl)methyl)thiazol-2-yl)acetamide] were, in that order, 33%, 47 nM, 16 nM and 1.8.
With `COc1cc(O[C@H]2CCCN(Cc3sc(NC(C)=O)nc3F)C2)ncn1` [Example 1-32, (S)—N-(4-fluoro-5-((3-((6-methoxypyrimidin-4-yl)oxy)piperidin-1-yl)methyl)thiazol-2-yl)acetamide], the “RLM % Qh (%)” value in data set [1] was 83%. Further, the IC50 came out at 32 nM in data set [2] (setting [5]) and 14 nM in data set [3]. The efflux ratio at 2 h in the data set with P-gp (MDR1) (setting [4]) was determined as 3.1.
For `COc1cc(O[C@@H]2CCCN(Cc3sc(NC(C)=O)nc3F)C2)ncn1` [Example 1-33, (R)—N-(4-fluoro-5-((3-((6-methoxypyrimidin-4-yl)oxy)piperidin-1-yl)methyl)thiazol-2-yl)acetamide], in data set [1], the “RLM % Qh (%)” value was 65%. The IC50 in data set [2] (setting [5]) was 51 nM; in data set [3], 17 nM. Further, the efflux ratio at 2 h in the data set on P-gp (MDR1) (setting [4]) was 2.9.
With `COc1cc(O[C@H]2CC[C@H](C)N(Cc3sc(NC(C)=O)nc3F)C2)ncn1` [Example 1-34, N-(4-fluoro-5-(((2S,5S)-5-((6-methoxypyrimidin-4-yl)oxy)-2-methylpiperidin-1-yl)methyl)thiazol-2-yl)acetamide], in data set [1], the “RLM % Qh (%)” value is 90%. Moreover, the IC50 in data set [2] (setting [5]) was 2 nM; in data set [3], < 1 nM. Besides, the efflux ratio at 2 h in the data set on P-gp (MDR1) (setting [4]) was found to be 4.1.
As to `COc1cc(O[C@@H]2CC[C@H](C)N(Cc3sc(NC(C)=O)nc3F)C2)ncn1` [Example 1-35, N-(4-fluoro-5-(((2S,5R)-5-((6-methoxypyrimidin-4-yl)oxy)-2-methylpiperidin-1-yl)methyl)thiazol-2-yl)acetamide], the “RLM % Qh (%)” value in data set [1] was 92%. For the same molecule, the figures for the IC50 in data set [2] (setting [5]) and in data set [3] were 2 nM and < 1 nM, respectively. The efflux ratio at 2 h with P-gp (MDR1) (setting [4]) was found to be 4.3.
As to `COc1cc(O[C@@H]2C[C@@H](C)N(Cc3cnc(NC(C)=O)s3)C2)ncn1` [Example 1-38, N-(5-(((2R,4R)-4-((6-methoxypyrimidin-4-yl)oxy)-2-methylpyrrolidin-1-yl)methyl)thiazol-2-yl)acetamide], the “RLM % Qh (%)” value in data set [1] is reported as 32%. The half-maximal inhibitory concentration (IC50) is > 1000 nM in data set [2] (setting [5]) and 250 nM in data set [3]. For the same molecule, the efflux ratio at 2 h in the data set with P-gp (MDR1) (setting [4]) was found to be 3.9.
In the case of `COc1cc(O[C@H]2C[C@H](C)N(Cc3cnc(NC(C)=O)s3)C2)ncn1` [Example 1-39, N-(5-(((2S,4S)-4-((6-methoxypyrimidin-4-yl)oxy)-2-methylpyrrolidin-1-yl)methyl)thiazol-2-yl)acetamide], the “RLM % Qh (%)” value in data set [1] turned out to be 57%. For the same molecule, the IC50 amounted to 30 nM in data set [2] (setting [5]) and 55 nM in data set [3]. In addition, the efflux ratio at 2 h in the data set with P-gp (MDR1) (setting [4]) worked out at 4.5.
In the case of `COc1cc(O[C@H]2C[C@@H](C)N(Cc3cnc(NC(C)=O)s3)C2)ncn1` [Example 1-40, N-(5-(((2R,4S)-4-((6-methoxypyrimidin-4-yl)oxy)-2-methylpyrrolidin-1-yl)methyl)thiazol-2-yl)acetamide], the “RLM % Qh (%)” value in data set [1] is given as 20%. Further, the IC50 in data set [2] (setting [5]) is > 1000 nM; in data set [3], 720 nM. For the same molecule, the efflux ratio at 2 h with P-gp (MDR1) (setting [4]) turned out to be 5.3.
In the case of `COc1cc(O[C@H]2CCCN(Cc3cnc(NC(C)=O)s3)C2)ncn1` [Example 1-41, (S)—N-(5-((3-((6-methoxypyrimidin-4-yl)oxy)piperidin-1-yl)methyl)thiazol-2-yl)acetamide], the “RLM % Qh (%)” value in data set [1] turned out to be 80%. Also, the IC50 in data set [2] (setting [5]) is 29 nM; in data set [3], 24 nM. For the same molecule, in the data set on P-gp (MDR1) (setting [4]), the efflux ratio at 2 h came out at 4.3.
The corresponding values for `COc1cc(O[C@@H]2CCCN(Cc3cnc(NC(C)=O)s3)C2)ncn1` [Example 1-42, (R)—N-(5-((3-((6-methoxypyrimidin-4-yl)oxy)piperidin-1-yl)methyl)thiazol-2-yl)acetamide] are 61%, 81 nM, 39 nM and 3.9.
The corresponding values for `COc1cc(O[C@H]2CC[C@H](C)N(Cc3cnc(NC(C)=O)s3)C2)ncn1` [Example 1-43, N-(5-(((2S,5S)-5-((6-methoxypyrimidin-4-yl)oxy)-2-methylpiperidin-1-yl)methyl)thiazol-2-yl)acetamide] are 81%, 1 nM, < 1 nM and 6.9.
With `COc1cc(O[C@@H]2CC[C@H](C)N(Cc3cnc(NC(C)=O)s3)C2)ncn1` [Example 1-44, N-(5-(((2S,5R)-5-((6-methoxypyrimidin-4-yl)oxy)-2-methylpiperidin-1-yl)methyl)thiazol-2-yl)acetamide], in data set [1], the “RLM % Qh (%)” value was 88%. In addition, the results for the IC50 in data set [2] (setting [5]) and in data set [3] were 2 nM and < 1 nM, respectively. The efflux ratio at 2 h in the data set with P-gp (MDR1) (setting [4]) was 9.3.
As for `CCC(=O)Nc1nc(F)c(CN2CC[C@@H](Oc3cc(OC)ncn3)C2)s1` [Example 1-45, (R)—N-(4-fluoro-5-((3-((6-methoxypyrimidin-4-yl)oxy)pyrrolidin-1-yl)methyl)thiazol-2-yl)propionamide], in data set [1], the “RLM % Qh (%)” value came out at 61%. The IC50 in data set [2] (setting [5]) stood at 966 nM; in data set [3] it was 47 nM. Moreover, in the data set on P-gp (MDR1) (setting [4]), the efflux ratio at 2 h was found to be 1.7.
On to `COc1cc(O[C@@H]2C[C@H](C)N(Cc3sc(NC(C)=O)nc3Cl)C2)ncn1` [Example 1-46, N-(4-chloro-5-(((2S,4R)-4-((6-methoxypyrimidin-4-yl)oxy)-2-methylpyrrolidin-1-yl)methyl)thiazol-2-yl)acetamide], for which the “RLM % Qh (%)” value in data set [1] is given as 55%. Further, the IC50 worked out at 38 nM in data set [2] (setting [5]) and 1 nM in data set [3]. In addition, the efflux ratio at 2 h in the data set on P-gp (MDR1) (setting [4]) came to 3.2.
With `CC(=O)Nc1nc(F)c(CN2C[C@H](Oc3ccc(F)cn3)C[C@@H]2C)s1` [Example 1-47, N-(4-fluoro-5-(((2S,4R)-4-((5-fluoropyridin-2-yl)oxy)-2-methylpyrrolidin-1-yl)methyl)thiazol-2-yl)acetamide], the “RLM % Qh (%)” value in data set [1] came to 76%. The IC50 was 1 nM in data set [2] (setting [5]) and < 1 nM in data set [3]. Moreover, the efflux ratio at 2 h in the data set on P-gp (MDR1) (setting [4]) was found to be 1.5.
As for `CC(=O)Nc1nc(F)c(CN2CC[C@H](Oc3cc(C)nc(C)c3)C2)s1` [Example 1-48, (S)—N-(5-((3-((2,6-dimethylpyridin-4-yl)oxy)pyrrolidin-1-yl)methyl)-4-fluorothiazol-2-yl)acetamide], in data set [1], the “RLM % Qh (%)” value is recorded as 57%. In addition, the results for the IC50 in data set [2] (setting [5]) and in data set [3] were 821 nM and 150 nM, respectively. The efflux ratio at 2 h with P-gp (MDR1) (setting [4]) amounted to 24.1.
`CC(=O)Nc1nc(F)c(CN2CC[C@@H](Oc3cc(C)nc(C)c3)C2)s1` [Example 1-49, (R)—N-(5-((3-((2,6-dimethylpyridin-4-yl)oxy)pyrrolidin-1-yl)methyl)-4-fluorothiazol-2-yl)acetamide]: the “RLM % Qh (%)” value in data set [1] was 34%. The IC50 in data set [2] (setting [5]) was 10 nM; in data set [3] it was < 1 nM. Also, in the data set on P-gp (MDR1) (setting [4]), the efflux ratio at 2 h amounted to 18.9.
